Results: patent US7056491B2, “Monoterpenes and sesquiterpenes as chemotherapeutic and radiation sensitizers and immunomodulators” (Wisconsin Alumni Research Foundation, priority 2000, dated 2006)

What was measured:
T98G cells = assay: Clonogenic survival, POH pretreatment then doxorubicin, T98G; assay type: cell-based, human; details: T98G
Procedure: Referring to FIG. 29, subconfluent cells of T98G cells were treated with varying concentrations of perillyl alcohol (0.1 mM–0.5 mM) for 48 hours and subsequently treated with the indicated dose of doxorubicin (0.01 uM–0.1 uM) for 48 hours. At the end of the treatment, POH-pretreated and untreated cells in the presence and absence of doxorubicin, were harvested, washed with PBS, plated at the desired cell number and incubated for two weeks. The colonies were stained with crystal violet and quantitated. Survival was determined as the ratio of plating efficiencies for each irradiated group to that of the untreated control. […] Doxorubicin at concentrations over 0.1 uM appeared to be toxic to the cells.

[1] = system: 21–26 kD proteins, including small GTP-binding proteins; details: dose dependent, distal to HMG-CoA reductase; cited from earlier work
rat mammary carcinoma = details: limonene, Haag et al.; cited from earlier work
[2] = rats, 10% limonene diet for 10 weeks; cited from earlier work

| Structure (SMILES) | concentrations toxic to the cells (T98G cells) | isoprenylation of 21–26 kD proteins [1] | effect on advanced rat mammary carcinomas (rat mammary carcinoma) | plasma levels of terpene metabolites [2] [µM] |
| --- | --- | --- | --- | --- |
| COc1cccc2c1C(=O)c1c(O)c3c(c(O)c1C2=O)C[C@@](O)(C(=O)CO)C[C@@H]3O[C@H]1C[C@H](N)[C@H](O)[C@H](C)O1 [Doxorubicin, reference compound] | over 0.1 uM | – | – | – |
| C=C(C)[C@H]1CC=C(C)CC1 [limonene] | – | inhibit isoprenylation | regression of advanced rat mammary carcinomas | 270 |
